Data: publication PMC5837865 (Clinical cancer research : an official journal of the …, 2017)
Converted amounts (≈) assume the structure as drawn. Where two headings read alike, the source gives them in different places.

Experiments:
[1] = test system: PC-3 cells; assay: Intracellular levels of PhosE and Etn by LC-MS/MS; assay type: cell-based, human; conditions: PC-3, 1 mg/ml treatment, 48h, pH 7.4
[2] = molecular target: CYP2A6 (Homo sapiens, UniProt P11509); assay: Cytochrome P450 inhibition; assay type: biochemical; conditions: read-out: IC50 CYP2A6
[3] = molecular target: CYP2B6 (Homo sapiens, UniProt P20813); assay: Cytochrome P450 inhibition; assay type: biochemical; conditions: read-out: IC50 CYP2B6
[4] = test system: OVCAR-3; assay: MTT cell proliferation assay; assay type: cell-based; conditions: OVCAR-3 (ovary)
[5] = test system: RWPE-1 cells; assay: MTT cell survival, near-normal prostate cells; assay type: cell-based; conditions: 0.5 mg/ml, 48h, pH 7.4, RWPE-1
[6] = test system: PC-3, DU145 and C42B cells; assay: MTT cell survival, prostate cancer lines; assay type: cell-based, human; conditions: 0.5 mg/ml, 48h, pH 7.4; range over PC-3, DU145 and C42B
[7] = test system: p53 transcript; assay: RT-PCR transcript levels; assay type: cell-based, human; conditions: PC-3, 2 mg/ml, 48h
[8] = test system: CK KD PC-3 cells; assay: MTT cell survival in choline kinase knockdown cells; assay type: cell-based, human; conditions: 0.5 mg/ml, CK KD (siRNA) PC-3 cells, 48h
[9] = test system: DU145 xenografts; assay: DU145 prostate cancer xenograft tumor growth; assay type: in vivo, athymic male BALB/c mice
[10] = test system: PC-3-luc tumors; assay: Glucose and glutamine levels in tumors by LC-MS/MS; assay type: in vivo, athymic male BALB/c mice; conditions: 40 mg/kg Etn-treated PC-3-luc tumors
[11] = assay type: in vivo, BALB/c mice; conditions: for Cmax / time to reach peak plasma concentration: plasma, label = analyte measured
[12] = test system: CFPAC; assay: MTT cell proliferation assay; assay type: cell-based; conditions: CFPAC (pancreas)
[13] = test system: PC-3 cells; assay: Annexin-V flow cytometry; assay type: cell-based, human; conditions: control ~8%
[14] = test system: HIF1-α; assay: HIF1-α protein expression in tumors; assay type: in vivo, athymic male BALB/c mice; conditions: PC-3-luc xenografts, Etn-treated
[15] = molecular target: CYP2D6 (Homo sapiens, UniProt P10635); assay: Cytochrome P450 inhibition; assay type: biochemical; conditions: read-out: IC50 CYP2D6
[16] = test system: HIF1-α transcripts; assay: RT-PCR transcript levels; assay type: cell-based, human; conditions: PC-3, 2 mg/ml, 48h
[17] = Etn absorption from formulations of different pH/acid; assay type: in vivo; conditions: pH 5/7.4; H3PO4/HCl/H2SO4
[18] = test system: PC-3 cells; assay: Intracellular glucose and glutamine levels in cultured cells; assay type: cell-based, human; conditions: PC-3, 2 mg/ml, 48h
[19] = test system: HCT116 xenograft; assay: HCT116 colon cancer xenograft tumor growth; assay type: in vivo, mice; conditions: 2 weeks
[20] = molecular target: CYP2C19 (Homo sapiens, UniProt P33261); assay: Cytochrome P450 inhibition; assay type: biochemical; conditions: read-out: IC50 CYP2C19
[21] = test system: PC-3 cells; assay: Oxygen consumption rate; assay type: cell-based, human; conditions: PC-3, 2 mg/ml, 48h, 1 million cells/ml
[22] = Stability in simulated gastric fluid; assay type: in vitro ADME; conditions: 10 µM, SGF pH 1.2, over 1h, LC-MS/MS
[23] = molecular target: CYP2C8 (Homo sapiens, UniProt P10632); assay: Cytochrome P450 inhibition; assay type: biochemical; conditions: read-out: IC50 CYP2C8
[24] = molecular target: CYP1A2 (Homo sapiens, UniProt P05177); assay: Cytochrome P450 inhibition; assay type: biochemical
[25] = test system: PC-3-luc xenografts; assay: PC-3-luc prostate cancer xenograft tumor growth; assay type: in vivo, athymic male BALB/c mice
[26] = test system: PC-3 cells; assay: MTT cell proliferation assay; assay type: cell-based, human; conditions: pH 7.4
[27] = test system: MDA-MB-468; assay: MTT cell proliferation assay; assay type: cell-based; conditions: MDA-MB-468 (breast)
[28] = molecular target: CYP2E1 (Homo sapiens, UniProt P05181); assay: Cytochrome P450 inhibition; assay type: biochemical; conditions: read-out: IC50 CYP2E1
[29] = test system: Ki67; assay: Ki67 immunohistochemistry of tumor sections; assay type: in vivo, athymic male BALB/c mice; conditions: PC-3-luc xenografts, 40 mg/kg; control tumors ~62%
[30] = molecular target: CYP3A4 (Homo sapiens, UniProt P08684); assay: Cytochrome P450 inhibition; assay type: biochemical; conditions: read-out: IC50 CYP3A4
[31] = Stability in simulated intestinal fluid; assay type: in vitro ADME; conditions: 10 µM
[32] = Acute oral toxicity; assay type: in vivo, Sprague-Dawley (SD) rats
[33] = molecular target: CYP2C9 (Homo sapiens, UniProt P11712); assay: Cytochrome P450 inhibition; assay type: biochemical; conditions: read-out: IC50 CYP2C9
[34] = test system: PC-3 cells; assay: Clonogenic; assay type: cell-based, human; conditions: 2 mg/ml, PC-3, pH 7.4
[35] = assay type: in vivo, BALB/c mice
[36] = test system: cancer cells of varying tissue-origin; assay: Proliferation and colony formation, cancer cells of varying tissue-origin; assay type: cell-based
[37] = Blood to plasma concentration ratio; assay type: in vitro ADME; conditions: BALB/c mice blood
[38] = 40 mg/kg oral gavage, pH 5, 4 weeks
[39] = after 4 weeks of 40 mg/kg oral Etn

Chain of CYP2E1 (P05181 whole entry): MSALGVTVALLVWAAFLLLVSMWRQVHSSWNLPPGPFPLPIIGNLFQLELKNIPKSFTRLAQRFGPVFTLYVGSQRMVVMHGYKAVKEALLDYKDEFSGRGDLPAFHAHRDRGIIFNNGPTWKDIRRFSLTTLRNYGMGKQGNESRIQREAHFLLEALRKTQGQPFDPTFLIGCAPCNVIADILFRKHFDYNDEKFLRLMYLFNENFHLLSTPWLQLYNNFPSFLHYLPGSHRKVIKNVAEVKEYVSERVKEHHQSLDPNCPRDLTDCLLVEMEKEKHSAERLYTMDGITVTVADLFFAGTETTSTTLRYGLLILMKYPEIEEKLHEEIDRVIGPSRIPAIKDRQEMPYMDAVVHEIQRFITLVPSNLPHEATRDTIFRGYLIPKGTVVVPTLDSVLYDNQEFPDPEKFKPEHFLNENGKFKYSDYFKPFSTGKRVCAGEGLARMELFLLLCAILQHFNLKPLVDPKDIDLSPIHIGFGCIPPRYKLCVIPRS
Chain of CYP3A4 (P08684 whole entry): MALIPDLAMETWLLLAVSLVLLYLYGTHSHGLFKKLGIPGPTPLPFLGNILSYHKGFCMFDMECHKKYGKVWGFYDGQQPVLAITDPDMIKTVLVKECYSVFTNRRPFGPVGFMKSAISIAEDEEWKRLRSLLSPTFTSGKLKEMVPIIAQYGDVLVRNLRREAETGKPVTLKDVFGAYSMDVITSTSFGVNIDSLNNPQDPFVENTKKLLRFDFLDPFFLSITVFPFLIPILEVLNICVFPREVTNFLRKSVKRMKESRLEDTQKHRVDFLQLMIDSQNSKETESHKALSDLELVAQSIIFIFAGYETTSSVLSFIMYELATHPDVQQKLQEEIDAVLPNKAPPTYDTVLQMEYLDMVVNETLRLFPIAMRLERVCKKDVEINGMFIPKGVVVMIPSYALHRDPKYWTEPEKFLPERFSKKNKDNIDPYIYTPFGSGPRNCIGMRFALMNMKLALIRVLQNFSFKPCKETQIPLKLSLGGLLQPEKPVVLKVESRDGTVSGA
Chain of CYP2C8 (P10632 whole entry): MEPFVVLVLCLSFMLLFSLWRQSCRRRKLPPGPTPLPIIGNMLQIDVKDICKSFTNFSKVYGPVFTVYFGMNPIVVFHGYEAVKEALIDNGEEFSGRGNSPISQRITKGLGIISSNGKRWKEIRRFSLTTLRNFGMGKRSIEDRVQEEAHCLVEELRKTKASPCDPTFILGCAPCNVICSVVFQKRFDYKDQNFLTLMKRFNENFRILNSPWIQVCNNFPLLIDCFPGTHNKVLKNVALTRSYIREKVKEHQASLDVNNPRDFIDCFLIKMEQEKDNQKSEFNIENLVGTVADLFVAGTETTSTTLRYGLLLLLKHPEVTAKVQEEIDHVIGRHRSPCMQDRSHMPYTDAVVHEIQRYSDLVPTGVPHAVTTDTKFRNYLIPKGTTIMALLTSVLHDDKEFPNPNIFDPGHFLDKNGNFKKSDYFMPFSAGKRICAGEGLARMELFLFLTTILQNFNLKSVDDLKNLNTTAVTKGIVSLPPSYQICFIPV
Chain of CYP2C19 (P33261 whole entry): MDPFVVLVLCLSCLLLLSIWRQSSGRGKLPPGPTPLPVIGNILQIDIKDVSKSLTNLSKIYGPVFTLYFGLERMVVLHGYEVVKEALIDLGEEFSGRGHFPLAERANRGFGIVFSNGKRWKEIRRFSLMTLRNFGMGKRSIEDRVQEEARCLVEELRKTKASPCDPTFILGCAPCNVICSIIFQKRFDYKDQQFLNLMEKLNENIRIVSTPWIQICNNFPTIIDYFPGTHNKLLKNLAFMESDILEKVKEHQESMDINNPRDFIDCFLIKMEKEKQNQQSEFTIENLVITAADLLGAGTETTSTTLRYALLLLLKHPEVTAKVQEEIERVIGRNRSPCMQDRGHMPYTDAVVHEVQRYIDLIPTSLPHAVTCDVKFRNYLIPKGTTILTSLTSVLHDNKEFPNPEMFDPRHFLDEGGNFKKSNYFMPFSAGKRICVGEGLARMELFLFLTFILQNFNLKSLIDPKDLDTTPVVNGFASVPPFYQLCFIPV
Chain of CYP2B6 (P20813 whole entry): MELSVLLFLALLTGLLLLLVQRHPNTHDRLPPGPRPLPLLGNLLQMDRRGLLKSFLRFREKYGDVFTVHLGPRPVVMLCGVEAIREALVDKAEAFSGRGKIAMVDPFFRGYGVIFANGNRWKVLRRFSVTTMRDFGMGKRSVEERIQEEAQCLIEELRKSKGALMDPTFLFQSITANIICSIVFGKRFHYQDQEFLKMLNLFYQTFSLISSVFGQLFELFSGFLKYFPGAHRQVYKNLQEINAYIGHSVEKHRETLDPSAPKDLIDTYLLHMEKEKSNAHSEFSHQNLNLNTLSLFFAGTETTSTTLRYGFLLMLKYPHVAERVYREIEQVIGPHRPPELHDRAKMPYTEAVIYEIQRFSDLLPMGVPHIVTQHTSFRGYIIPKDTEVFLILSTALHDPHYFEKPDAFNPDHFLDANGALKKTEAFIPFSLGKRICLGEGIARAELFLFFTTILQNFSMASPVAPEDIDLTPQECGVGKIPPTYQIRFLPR
Chain of CYP1A2 (P05177 whole entry): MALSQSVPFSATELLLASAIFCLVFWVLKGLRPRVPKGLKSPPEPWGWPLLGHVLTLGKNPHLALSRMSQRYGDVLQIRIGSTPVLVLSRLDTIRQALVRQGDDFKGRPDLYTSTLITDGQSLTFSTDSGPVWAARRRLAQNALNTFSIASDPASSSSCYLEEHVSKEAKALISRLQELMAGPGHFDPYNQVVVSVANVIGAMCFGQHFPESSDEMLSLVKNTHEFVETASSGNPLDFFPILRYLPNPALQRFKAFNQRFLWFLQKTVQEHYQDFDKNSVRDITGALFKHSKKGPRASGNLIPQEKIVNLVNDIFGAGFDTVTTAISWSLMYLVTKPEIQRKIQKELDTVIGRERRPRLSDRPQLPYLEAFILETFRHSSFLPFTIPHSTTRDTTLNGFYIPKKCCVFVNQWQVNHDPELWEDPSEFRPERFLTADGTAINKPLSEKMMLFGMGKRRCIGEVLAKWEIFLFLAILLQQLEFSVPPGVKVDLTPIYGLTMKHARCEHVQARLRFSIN
Chain of CYP2D6 (P10635 whole entry): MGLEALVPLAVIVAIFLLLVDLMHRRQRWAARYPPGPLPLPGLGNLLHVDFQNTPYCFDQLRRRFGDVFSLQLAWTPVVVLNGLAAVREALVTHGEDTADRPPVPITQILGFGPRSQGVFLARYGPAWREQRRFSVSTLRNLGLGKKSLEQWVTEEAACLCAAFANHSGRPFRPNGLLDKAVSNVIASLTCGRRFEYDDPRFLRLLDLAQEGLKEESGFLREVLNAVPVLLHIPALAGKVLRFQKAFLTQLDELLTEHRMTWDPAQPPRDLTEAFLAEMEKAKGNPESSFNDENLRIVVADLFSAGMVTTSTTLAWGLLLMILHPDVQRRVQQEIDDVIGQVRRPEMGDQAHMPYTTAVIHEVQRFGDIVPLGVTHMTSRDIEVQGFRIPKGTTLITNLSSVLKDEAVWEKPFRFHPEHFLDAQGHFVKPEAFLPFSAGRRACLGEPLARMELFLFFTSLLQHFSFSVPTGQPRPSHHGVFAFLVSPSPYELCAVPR
Chain of CYP2A6 (P11509 whole entry): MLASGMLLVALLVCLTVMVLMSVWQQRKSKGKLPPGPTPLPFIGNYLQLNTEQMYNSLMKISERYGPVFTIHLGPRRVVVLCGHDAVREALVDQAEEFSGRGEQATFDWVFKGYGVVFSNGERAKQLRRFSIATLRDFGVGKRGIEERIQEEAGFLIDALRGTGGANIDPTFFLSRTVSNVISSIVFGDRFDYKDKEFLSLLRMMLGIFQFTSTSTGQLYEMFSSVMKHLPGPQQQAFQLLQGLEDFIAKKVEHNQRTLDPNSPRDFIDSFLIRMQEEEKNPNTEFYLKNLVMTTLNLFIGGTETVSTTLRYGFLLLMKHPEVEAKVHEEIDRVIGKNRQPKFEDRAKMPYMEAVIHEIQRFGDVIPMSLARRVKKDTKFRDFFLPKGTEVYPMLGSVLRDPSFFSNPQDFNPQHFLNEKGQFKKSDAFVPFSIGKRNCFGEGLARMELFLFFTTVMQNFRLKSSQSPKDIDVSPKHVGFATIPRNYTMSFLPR
Chain of CYP2C9 (P11712 whole entry): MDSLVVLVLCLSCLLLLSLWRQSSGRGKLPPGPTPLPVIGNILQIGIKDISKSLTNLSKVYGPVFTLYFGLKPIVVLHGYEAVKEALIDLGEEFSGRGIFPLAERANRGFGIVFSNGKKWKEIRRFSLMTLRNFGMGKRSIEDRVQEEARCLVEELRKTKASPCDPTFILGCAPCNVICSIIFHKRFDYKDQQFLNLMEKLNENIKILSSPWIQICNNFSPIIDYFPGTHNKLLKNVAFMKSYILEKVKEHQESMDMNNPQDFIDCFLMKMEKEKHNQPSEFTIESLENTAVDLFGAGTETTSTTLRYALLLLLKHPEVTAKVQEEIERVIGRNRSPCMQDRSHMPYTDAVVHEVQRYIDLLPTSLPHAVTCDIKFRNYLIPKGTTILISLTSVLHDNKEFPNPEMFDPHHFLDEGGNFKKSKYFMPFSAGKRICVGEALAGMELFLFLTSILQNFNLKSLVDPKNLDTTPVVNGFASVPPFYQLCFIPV

NCCO [Etn, monoethanolamine]
increase of intracellular PhosE levels relative to control cells [1]: ~ 40 fold | IC50 [2]: > 100 µM | IC50 [3]: > 100 µM | IC50, cell proliferation [4]: 290 µg/mL (≈ 4.75 mM) | effect on cell survival [5]: unaffected | reduction of cell survival [6]: 30–52% | increase in p53 transcript levels compared to controls [7]: 1.2 fold | decrease in cell viability [8]: ~ 11% | reduction in tumor volume [9, 38]: ~ 42% | reduction in tumor weight [9, 38]: ~ 29% | change in body weight over treatment course ([9]; 40 mg/kg oral, 4 weeks, DU145 tumor bearing mice): no apparent change in body weight | glucose content in tumors versus control [10]: significantly reduced | glutamine content in tumors versus control [10]: significantly reduced | Cmax of Etn relative to Cmax of PhosE ([11]; after oral Etn 40 mg/kg): 32 fold | Cmax ([11]; after oral Etn 40 mg/kg): 17370 ng/mL | time to reach peak plasma concentration ([11]; after oral Etn 40 mg/kg): 10 min | Cmax ([11]; after oral PhosE 60 mg/kg): 4320 ng/mL | IC50, cell proliferation [12]: 1900 µg/mL (≈ 31.1 mM) | Annexin-V positive cells upon treatment [13]: ~ 25% | HIF1-α protein expression in treated versus control tumors [14]: downregulation | IC50 [15]: > 100 µM | reduction in HIF1-α transcripts levels compared to control cells [16]: 50 fold | dependence of absorption on formulation pH or acid [17]: independent of pH | glucose content in cells versus control [18]: significantly reduced | glutamine content in cells versus control [18]: significantly reduced | decrease in tumor volume ([19]; 40 mg/kg oral gavage): ~ 44% | change in body weight over treatment course ([19]; 40 mg/kg oral, HCT116 tumor bearing mice): no apparent change in body weight | IC50 [20]: > 100 µM | reduction of OCR compared to controls [21]: ~ 26% | stability in SGF [22]: stable | IC50 [23]: > 100 µM | IC50 ([24]; read-out: IC50 CYP1A2): > 100 µM | reduction in tumor volume ([25]; 40 mg/kg oral gavage, pH 5 (phosphoric acid), 4 weeks): ~ 67% | reduction in tumor weight [25, 38]: ~ 55% | change in body weight over treatment course ([25]; 40 mg/kg oral, 4 weeks, PC-3-luc tumor bearing mice): no apparent change in body weight | change in intratumoral Etn levels versus control mice [25, 39]: did not observe any significant change | intratumoral PhosE level, increase over control mice [25, 39]: ~ 38% | reduction of cell survival ([26]; 0.5 mg/ml, PC-3, 48h): ~ 38% | reduction in cell proliferation ([26]; 1 mg/ml Etn alone, PC-3, 48h): ~ 33% | half-maximal concentration (IC50), cell proliferation ([26]; PC-3, MTT, 48h): ~ 0.88 mg/ml | IC50, cell proliferation [27]: 550 µg/mL (≈ 9 mM) | IC50 [28]: > 100 µM | Ki67-positive cells in treated tumors [29]: ~ 40% | IC50 [30]: > 100 µM | stability in SIF ([31]; SIF pH 6.8, over time (0-120 min), LC-MS/MS): remained unchanged | acute toxicity ([32]; single oral dose 5 g/kg (limit dose), male and female rats, monitored one week): does not induce any acute toxicity | survival after one week ([32]; single oral dose 5 g/kg, five male and five female rats): all rats were alive | IC50 [33]: > 100 µM | decrease in colony numbers [34]: ~ 97%

NCCOP(=O)(O)O [PhosE, phosphoethanolamine]
increase of intracellular PhosE levels relative to control cells [1]: ~ 15 fold | IC50 [2]: > 100 µM | IC50 [3]: > 100 µM | Cmax ([11]; after oral Etn 40 mg/kg): 550 ng/mL | time to reach peak plasma concentration ([11]; after oral Etn 40 mg/kg): 10 min | Cmax ([11]; after oral PhosE 60 mg/kg): 1140 ng/mL | oral bioavailability ([11]; oral Etn 40 mg/kg, PhosE 60 mg/kg vs intravenous 2 and 3 mg/kg): 19% | IC50 [15]: > 100 µM | volume of distribution (Vd) ([35]; intravenous PhosE 3 mg/kg): 4.82 L/kg | clearance (CL) ([35]; intravenous, Etn 2 mg/kg, PhosE 3 mg/kg): 101.92 mL/min/kg | IC50 [20]: > 100 µM | stability in SGF [22]: stable | IC50 [23]: > 100 µM | IC50 [24]: > 100 µM | IC50 [28]: > 100 µM | IC50 [30]: > 100 µM | inhibition of proliferation and colony formation [36]: ineffective | partitioning into RBCs (blood to plasma concentration ratio) [37]: lack of preferential partitioning into RBCs | decrease in concentration in SIF ([31]; SIF pH 6.8, after 2h): ~ 35% | IC50 [33]: > 100 µM | effect on colony numbers compared to control cells [34]: ineffective
